For assay [1], the system named is rabbit intralobar pulmonary arteries. Description: Promotion of 5,6-EET induced vasoconstriction in rabbit intralobar pulmonary artery rings. To be noted: compound at 1 μM; rabbit PA rings. The protocol: To obtain the pulmonary arteries used in the study, adult New Zealand white rabbits (2.4-3.0 kg) were anesthetized with pentobarbital sodium (15 mg/kg iv) for 10 minutes after intramuscular administration of ketamine (8 mg/kg) and xylazine (2 mg/kg). A tracheostomy was performed and a tracheal cannula was inserted. The animals were ventilated via a fixed volume ventilator (Harvard) with room air (tidal volume: 8-10 ml/kg at 15 cycles/min). A catheter was inserted into a carotid artery for administration of heparin (1,000 units, iv) 10 minutes before exsanguination of the animal. After exsanguination, the lungs were removed for isolation of the pulmonary vessels. Intralobar, second order pulmonary arteries (PA) were obtained as described previously (Stephenson A. H., et al., American Journal of Physiology 284: H2153-H2161, 2003). […] Ring tension was measured from one of the support wires attached to an isometric force transducer (FT03, Grass) and recorded continuously on a polygraph (Grass). Each ring was placed under a basal (passive) tension (0.75 to 1.5 g) determined to result in a maximal contractile response to KCl (60 mM). […]

Assay [2] relates to isolated perfused rabbit lungs. Kind of assay: Hypoxia-induced pulmonary vasoconstriction in isolated perfused rabbit lungs (with L-NAME). To be noted: compound at 10 μM in perfusate, L-NAME 100 μM. As for the experimental part:
Adult New Zealand white rabbits were prepared as described in Example 2. After exsanguination was completed, a midsternal thoracotomy was performed, and the heart and lungs were removed en bloc. Fluid-filled catheters were placed into the PA and the left atrium for lung perfusion and pressure measurements. The isolated lungs were ventilated at 10 ml/kg with 26-30 breaths/min of 15% O2-6% CO2-79% N2 to achieve a perfusate pH of 7.33±0.01, PCO2 of 38.1±2.8 mmHg, and PO2 of 107.3±5.9 mmHg. The lungs were perfused in a humidified chamber (34-37° C.) in a recirculating manner with 150 ml of PSS containing (in mM) 118.3 NaCl, 4.7 KCl, 2.5 CaCl2, 1.2 MgSO4, 1.2 KH2PO4, 25.0 NaHCO3, 0.026 Na-EDTA, and 11.1 glucose (pH 7.4) to which hetastarch was added for maintenance of oncotic pressure. […] Pulmonary arterial (Ppa, inflow), pulmonary venous (Pla, outflow), and airway pressures were recorded continuously. Microvascular pressure (Pmv) was measured by the double occlusion method (Dawson C. A., et al., Journal of Applied Physiology 64: 274-284, 1988; Wurtz M. M., et al., J Appl Physiol 73: 2135-2141, 1992). […] Total PVR was calculated as (Ppa Pla)/perfusate flow rate. Arterial PVR was calculated as (Ppa Pmv)/perfusate flow rate, and venous PVR was calculated as (Pmv Pla)/perfusate flow rate (Stephenson A. H., et al., Am J Physiol 275: H100-H109, 1998).

Assay [3] relates to rabbit intralobar pulmonary arteries. Description: Inhibition of agonist-induced vasoconstriction in rabbit intralobar pulmonary artery rings (ring tension). To be noted: compound at 10 μM; for inhibition of 5,6-EET-induced vasoconstriction (concentration-response curve shifted to the right): 5,6-EET 1×10^−8-1×10^−5 M, rabbit PA rings. The protocol: To obtain the pulmonary arteries used in the study, adult New Zealand white rabbits (2.4-3.0 kg) were anesthetized with pentobarbital sodium (15 mg/kg iv) for 10 minutes after intramuscular administration of ketamine (8 mg/kg) and xylazine (2 mg/kg). A tracheostomy was performed and a tracheal cannula was inserted. The animals were ventilated via a fixed volume ventilator (Harvard) with room air (tidal volume: 8-10 ml/kg at 15 cycles/min). A catheter was inserted into a carotid artery for administration of heparin (1,000 units, iv) 10 minutes before exsanguination of the animal. After exsanguination, the lungs were removed for isolation of the pulmonary vessels. Intralobar, second order pulmonary arteries (PA) were obtained as described previously (Stephenson A. H., et al., American Journal of Physiology 284: H2153-H2161, 2003). Briefly, intralobar PA (1-2 mm OD) were dissected free of extravascular tissue, cut into rings 3-4 mm in length and suspended in water-jacketed tissue chambers containing 10 ml of a physiological salt solution (PSS) composed of (in mM): NaCl (118.3), KCl (4.7), CaCl2 (2.5), MgS04 (1.2), KH2P04 (1.2), NaHC03 (25) Na-EDTA (0.026), and glucose (11.1). The PSS was gassed with 95% O2-5% CO2 (pH: 7.4) and maintained at 37° C. Each ring was mounted between two stainless steel support wires. Ring tension was measured from one of the support wires attached to an isometric force transducer (FT03, Grass) and recorded continuously on a polygraph (Grass). Each ring was placed under a basal (passive) tension (0.75 to 1.5 g) determined to result in a maximal contractile response to KCl (60 mM). In some studies, basal tension was increased with 25 mM KCl to achieve a submaximal increase in active tension. At basal tension, concentrations of 5,6-EET (1×10^−8-1×10^−5 M, delivered in 1 μl of absolute ethanol) were added individually or cumulatively to the rings in 10 ml PSS. Total ethanol concentration in the tissue chambers never exceeded 0.1%. In these experiments, 5,6-EET was added in the presence or absence of the selective 5,6-EET inhibitors 13-HTEC (10 μM) and 14-HTYC (10 μM). […] PA rings were also exposed to various concentrations of PGF2α, (Sigma Chemical Company, St. Louis, Mo.), 14,15-EET (Cayman Chemical, Ann Arbor, Mich.), 5-hydroxytryptamine (5-HT) (Sigma Chemical Company, St. Louis, Mo.), and norepinephrine (NE) (Sigma Chemical Company, St. Louis, Mo.).

The next assay has as its system mice. To be noted: Pokreisz et al. 2006; cited from earlier work.

Each structure is given as a SMILES string. Entries after “also recorded” stand apart in the source; their conditions may differ.

Regarding `CCCCCC1OC1CCCCCCC/C=C\CCCC(=O)O` (stereo not shown) [14,15-EEZE, 14,15-epoxyeicosa-5(Z)-enoic acid], the “effect on vasoconstrictor activity of exogenously administered 5,6-EET (concentration-response curve shifted to the left)” value in assay [1] is reported as “significantly promoted or agonized”.

On to `CCCCCCCOCCCCCCC/C=C\CCCC(=O)O` [Compound 13-HTEC, 13-heptyloxytridec-5(Z)-enoic acid], for which, in assay [2], the “effect on pulmonary arterial inflow (Ppa) pressure / hypoxia-induced vasoconstriction” value is “hypoxia-induced vasoconstriction is reduced; also recorded: significantly decreased”. Moreover, in assay [3], the “inhibition of 5-hydroxytryptamine (5-HT)-mediated vasoconstriction of PA” value is “is not inhibited; also recorded: does not inhibit”, the “inhibition of 14,15-EET-mediated vasoconstriction of PA” value is recorded as “is not inhibited; also recorded: does not inhibit”, the “inhibition of PGF2α-mediated vasoconstriction of PA” value is recorded as “is not inhibited; also recorded: does not inhibit” and the “inhibition of norepinephrine (NE)-mediated vasoconstriction of PA” value is reported as “Minimal effects; also recorded: may have partially inhibited”. Moreover, the “inhibition of 5,6-EET-induced vasoconstriction (concentration-response curve shifted to the right)” value in assay [3] is given as “specifically inhibit; also recorded: significantly inhibited”.

`CCCCCCOCCCCCCCCC#CCCCC(=O)O` [Compound 14-HTYC, 14-(hexyloxy)tetradec-5-ynoic acid]: the “inhibition of 5,6-EET-induced vasoconstriction (concentration-response curve shifted to the right)” value in assay [3] is “specifically inhibit”.

As to `C#CCOc1ccccc1CCCCCC(=O)NS(C)(=O)=O` [MSPPOH, N-methyl sulfonyl-6-(2-propargyloxyphenyl)hexanamide], in the assay with mice, the “effect on acute hypoxia-induced pulmonary hypertension” value is listed as “significantly reduced” and the “effect on chronic hypoxia-induced pulmonary vascular remodeling” value is “significantly reduced”.

These data come from US20080095711A1, “Modulators of Pulmonary Hypertension” (priority 2006, published 2008).
